In patent US11274090B2, “P300/CBP HAT inhibitors” (Constellation Pharmaceuticals, Inc., priority 2018, dated 2022):

Assays:
[1] = target: p300 HAT domain (residues 1287-1666) (Homo sapiens (Human), UniProt Q09472); experiment: p300 HAT SPA assay (scintillation proximity assay, acetylation of biotinylated H3(1-21) peptide); format: biochemical; conditions: average of at least 2 replicate titrations
In short: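 Scintillation proximity readout of acetylated biotin-H3(1-21) captured on streptavidin plates after 1.5 hr at RT; enzyme was Ni2+/anion-exchange-purified HAT domain in 20 mM Hepes pH 7.5. Inhibitor IC50s calculated from the data.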

full length p300 = full length p300 (Homo sapiens (Human), UniProt Q09472); experiment: full length p300 SPA assay; format: biochemical; conditions: average of at least 2 replicate titrations, read-out: FL P300 IC50
Sequence of full length p300 (Q09472 whole entry): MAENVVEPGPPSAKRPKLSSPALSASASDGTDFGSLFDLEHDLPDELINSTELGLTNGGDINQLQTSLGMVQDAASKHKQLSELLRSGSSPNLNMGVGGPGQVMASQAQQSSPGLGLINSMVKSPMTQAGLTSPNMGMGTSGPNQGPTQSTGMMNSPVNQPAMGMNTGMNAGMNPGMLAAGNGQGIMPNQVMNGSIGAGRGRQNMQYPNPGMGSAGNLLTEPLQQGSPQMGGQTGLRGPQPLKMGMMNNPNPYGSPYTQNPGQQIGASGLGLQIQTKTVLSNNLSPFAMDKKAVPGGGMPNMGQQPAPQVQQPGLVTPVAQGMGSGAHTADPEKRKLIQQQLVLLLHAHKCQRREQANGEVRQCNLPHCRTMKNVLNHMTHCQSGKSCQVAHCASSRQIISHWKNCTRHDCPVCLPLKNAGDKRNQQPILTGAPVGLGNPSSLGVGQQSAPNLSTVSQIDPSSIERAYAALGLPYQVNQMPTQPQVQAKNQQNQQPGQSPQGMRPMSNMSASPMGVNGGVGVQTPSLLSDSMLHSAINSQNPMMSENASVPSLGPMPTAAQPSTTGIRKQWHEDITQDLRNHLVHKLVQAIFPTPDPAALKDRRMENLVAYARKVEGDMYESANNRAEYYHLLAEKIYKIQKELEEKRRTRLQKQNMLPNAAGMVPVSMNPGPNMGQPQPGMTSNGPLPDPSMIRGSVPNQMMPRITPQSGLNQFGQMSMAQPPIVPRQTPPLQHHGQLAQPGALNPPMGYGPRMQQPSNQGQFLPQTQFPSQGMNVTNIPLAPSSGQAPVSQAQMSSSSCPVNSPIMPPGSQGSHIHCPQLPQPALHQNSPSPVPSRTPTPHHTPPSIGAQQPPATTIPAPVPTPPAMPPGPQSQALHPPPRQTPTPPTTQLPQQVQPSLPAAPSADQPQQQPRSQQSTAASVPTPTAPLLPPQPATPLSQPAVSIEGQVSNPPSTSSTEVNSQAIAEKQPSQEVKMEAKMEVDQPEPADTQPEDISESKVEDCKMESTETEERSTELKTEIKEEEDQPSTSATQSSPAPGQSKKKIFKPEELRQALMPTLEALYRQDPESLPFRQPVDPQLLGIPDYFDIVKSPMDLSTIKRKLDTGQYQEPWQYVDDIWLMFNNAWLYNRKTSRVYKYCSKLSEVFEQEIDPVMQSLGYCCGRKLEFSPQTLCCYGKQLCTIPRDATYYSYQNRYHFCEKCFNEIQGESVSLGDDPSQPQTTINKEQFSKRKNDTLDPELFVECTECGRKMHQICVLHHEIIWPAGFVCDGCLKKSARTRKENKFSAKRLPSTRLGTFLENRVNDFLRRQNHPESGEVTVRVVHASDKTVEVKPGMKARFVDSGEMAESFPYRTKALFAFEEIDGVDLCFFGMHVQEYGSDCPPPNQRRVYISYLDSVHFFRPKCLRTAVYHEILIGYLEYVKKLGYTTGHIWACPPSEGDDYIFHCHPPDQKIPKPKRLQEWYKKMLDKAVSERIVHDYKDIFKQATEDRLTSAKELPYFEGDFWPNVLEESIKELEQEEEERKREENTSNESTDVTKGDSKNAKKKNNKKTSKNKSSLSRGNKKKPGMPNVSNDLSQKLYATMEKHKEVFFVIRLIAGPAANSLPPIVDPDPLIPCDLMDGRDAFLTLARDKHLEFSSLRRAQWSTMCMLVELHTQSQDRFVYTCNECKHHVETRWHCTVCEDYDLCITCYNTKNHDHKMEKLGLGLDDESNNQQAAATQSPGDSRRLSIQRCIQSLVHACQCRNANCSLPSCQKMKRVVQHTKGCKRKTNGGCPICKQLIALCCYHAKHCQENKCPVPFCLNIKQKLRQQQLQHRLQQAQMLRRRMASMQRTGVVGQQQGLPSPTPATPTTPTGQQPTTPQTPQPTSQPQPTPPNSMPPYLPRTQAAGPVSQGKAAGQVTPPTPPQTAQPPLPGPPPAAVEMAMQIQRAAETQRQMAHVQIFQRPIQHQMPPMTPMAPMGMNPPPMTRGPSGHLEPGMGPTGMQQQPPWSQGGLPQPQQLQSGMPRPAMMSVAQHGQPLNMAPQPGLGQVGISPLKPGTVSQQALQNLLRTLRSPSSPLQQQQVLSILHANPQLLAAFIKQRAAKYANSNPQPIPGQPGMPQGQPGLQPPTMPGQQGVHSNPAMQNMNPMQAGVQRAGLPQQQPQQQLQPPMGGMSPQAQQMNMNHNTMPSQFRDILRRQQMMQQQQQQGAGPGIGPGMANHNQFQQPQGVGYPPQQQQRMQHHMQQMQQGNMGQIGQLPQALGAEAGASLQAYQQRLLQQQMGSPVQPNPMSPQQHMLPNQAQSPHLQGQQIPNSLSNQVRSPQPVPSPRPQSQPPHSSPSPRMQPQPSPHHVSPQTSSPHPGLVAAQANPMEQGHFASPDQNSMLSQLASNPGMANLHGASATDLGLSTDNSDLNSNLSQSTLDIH

[2] = system: acetylation of chromatin at H3K18 (p300 and CBP) in HCT-116 cells; experiment: H3K18Ac MSD cellular assay; format: cell-based; conditions: Homo sapiens, 2 hr treatment
Description: Select compounds were also evaluated in a H3K18Ac MSD cellular assay that measures the ability of compounds to inhibit the acetylation of chromatin at H3K18, a process catalyzed by p300 and CBP. In a typical experiment the p300 HAT inhibitory activity inside cells of the compounds described herein was determined in accordance with the following experimental method. 20 k HCT-116 cells per well are plated in 75 μL RPMI+10% FBS media the night before treatment. Compounds plated in DMSO at 4× final concentration are resuspended in 30 μL RPMI+10% FBS, then 25 μL is combined with corresponding wells containing cells. Treated cells are incubated for 2 hr at 37° C., then lysed in 500 μL final volume and frozen at −80° C. MSD plates (Meso Scale Discovery) are coated overnight at 4° C. with 60 μL 1:500 α-total histone antibody (Millipore MAB3422) in PBS. Plates are then blocked with 5% BSA in TBST shaking at RT for 1 hr, washed, and 30 μL lysate added to each well for 2 hr shaking at RT. Plates are washed and 25 μL 1:216 α-H3K18ac antibody (CST 9675) in PBS added, then incubated for 1 hr shaking at RT. Plates are washed again, then 25 μL 1:1000 Sulfo-Tag goat α-rabbit antibody (Meso Scale Discovery R32Ab-1) in PBS is added for 1 hr shaking at RT. Plates are washed once more, then 150 μL 1× Read Buffer (MSD #R92TD-3) is added to all wells and read on MSD SECTOR Imager 2400 using the conventional read setup.

Sequence of p300 HAT domain (residues 1287-1666) (Q09472 1287-1666): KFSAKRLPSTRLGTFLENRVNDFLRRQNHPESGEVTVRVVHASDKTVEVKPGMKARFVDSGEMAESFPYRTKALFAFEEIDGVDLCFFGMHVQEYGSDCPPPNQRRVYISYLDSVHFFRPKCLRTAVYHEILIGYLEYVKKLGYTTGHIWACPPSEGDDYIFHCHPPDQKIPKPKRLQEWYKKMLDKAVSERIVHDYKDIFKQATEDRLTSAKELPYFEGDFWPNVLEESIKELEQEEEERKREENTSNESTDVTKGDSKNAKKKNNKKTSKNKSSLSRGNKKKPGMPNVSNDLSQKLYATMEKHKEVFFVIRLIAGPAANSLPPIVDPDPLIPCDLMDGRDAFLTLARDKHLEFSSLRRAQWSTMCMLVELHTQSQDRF

Row | SMILES | IC50 [1] | IC50 (full length p300) | EC50 [2] | EC50 ([2]; HCT-116, 2 h)
1 | C[C@H](CNC(C(=O)Nc1ccc(-c2cnn(CC(=O)N(C)C)c2)cn1)c1ccccc1)c1ccc(C#N)cc1 (single isomer, unassigned) [84 Isomer 2] | 16.2 nM | 2.15 nM | 34.7 nM | –
2 | Cn1cc(-c2ccc(NC(=O)C(NCCc3ccc(Cl)cc3)c3cnn(C)c3)nc2)cn1 (single isomer, unassigned) [148 Isomer 1] | 50.8 nM | 2.35 nM | 84.5 nM | –
3 | CC(CNC(C(=O)Nc1ccc(-c2cnn(C)c2)cn1)c1cnn(C)c1)c1ccc(C#N)cc1 (single isomer, unassigned) [127 Isomer 4] | 21.9 nM | < 3.24 nM | 18.8 nM | –
4 | Cn1cc(-c2ccc(NC(=O)[C@@H](NCCc3ccc(C#N)cc3)c3ccccc3)cc2)cn1 (single isomer, unassigned) [1 Isomer 2] | 130 nM | 4 nM | – | 107 nM
5 | Cc1n[nH]c(C)c1-c1ccc(NC(=O)C(NC[C@@H](C)c2ccc(C#N)cc2)c2ccccc2)nc1 (single isomer, unassigned) [133 Isomer 2] | 14.4 nM | < 3.24 nM | 40.6 nM | –
6 | Cn1cc(-c2ccc(NC(=O)C(NCCc3ccc(C#N)cc3)c3ccccc3)c(Cl)c2)cn1 (single isomer, unassigned) [26 Isomer 1] | 88.9 nM | 3 nM | 265 nM | –
7 | CC(CNC(C(=O)Nc1ccc(N2CCN(C)C(=O)C2)cn1)c1cnn(C)c1)c1ccc(C#N)cc1 (single isomer, unassigned) [136 Isomer 3] | 26.4 nM | < 3.24 nM | 70.1 nM | –
